In patent US6437128B1, “Cribrostatins 3-5” (Arizona Board of Regents, priority 2001, dated 2002):

Legend:
Experiment in all cases: Antimicrobial disk diffusion
Assay type in all cases: cell-based
[1] = system: Escherichia coli (ATCC 25922)
[2] = system: Micrococcus luteus (Presque Isle 456)
[3] = system: Enterococcus faecalis (ATCC 29212)
[4] = system: Enterobacter cloacae (ATCC 13047)
[5] = system: Neisseria gonorrhoeae (ATCC 49226)
[6] = system: Cryptococcus neoformans (ATCC 90112)
[7] = system: Stenotrophomonas maltophilia (ATCC 13637)
[8] = system: Staphylococcus aureus (ATCC 29213)
[9] = system: Streptococcus pneumoniae (ATCC 6303)
[10] = system: Bacillus subtilis (Presque Isle 620)
[11] = system: Penicillin-resistant N. gonorrhoeae (clinical isolate)
[12] = system: Candida albicans (ATCC 90028)
[13] = system: Invasive S. pneumoniae (clinical isolate)
[14] = system: Penicillin-resistant S. pneumoniae (clinical isolate)
[15] = system: Group A Streptococcus (clinical isolate)

| SMILES | Minimum inhibitory concentration [1] | Minimum inhibitory concentration [2] | Minimum inhibitory concentration [3] | Minimum inhibitory concentration [4] | Minimum inhibitory concentration [5] | Minimum inhibitory concentration [6] | Minimum inhibitory concentration [7] | Minimum inhibitory concentration [8] | Minimum inhibitory concentration [9] | Minimum inhibitory concentration [10] | Minimum inhibitory concentration [11] | Minimum inhibitory concentration [12] | Minimum inhibitory concentration [13] | Minimum inhibitory concentration [14] | Minimum inhibitory concentration [15] |
| --- | --- | --- | --- | --- | --- | --- | --- | --- | --- | --- | --- | --- | --- | --- | --- |
| CC1=C(N)C(=O)c2c(ccnc2C)C1=O [Cribrostatin 1, cribrostatin 1, reference compound] | * (No inhibition at 100 μg/disk) | * (No inhibition at 100 μg/disk) | * (No inhibition at 100 μg/disk) | * (No inhibition at 100 μg/disk) | 0.39-0.78 μg/disk | * (No inhibition at 100 μg/disk) | * (No inhibition at 100 μg/disk) | * (No inhibition at 100 μg/disk) | * (No inhibition at 100 μg/disk) | * (No inhibition at 100 μg/disk) | 0.39-0.78 μg/disk | * (No inhibition at 100 μg/disk) |  |  |  |
| CCOC1=C(C)C(=O)c2cc(=O)n(C)cc2C1=O [Cribrostatin 2, cribrostatin 2, reference compound] | * (No inhibition at 100 μg/disk) | 50-100 μg/disk | * (No inhibition at 100 μg/disk) | * (No inhibition at 100 μg/disk) | 0.39-0.78 μg/disk | 12.5-25 μg/disk | * (No inhibition at 100 μg/disk) | 12.5-25 μg/disk | 12.3-25 μg/disk | 25-50 μg/disk | 0.39-0.78 μg/disk | 3.12-6.25 μg/disk | 50-100 μg/disk | 25-50 μg/disk | * (No inhibition at 100 μg/disk) |
